This passage reports IC50 results from ChEMBL document CHEMBL4732260, “Developing novel classes of protein kinase CK1δ inhibitors by fusing [1,2,4]triazole with different bicyclic heteroaromatic systems” (Eur J Med Chem, 2021).

Assay [1] addresses Casein kinase I isoform delta (Homo sapiens, UniProt P48730). In words: Inhibition of wild-type human CK1delta using PLSRTLpSVASLPGL as substrate incubated for 40 mins in presence of ATP by Kinase-Glo luminescence assay. In general terms: Kinase-Glo measures the ATP left after a reaction by luminescence.
Assay [2] deals with Casein kinase I isoform epsilon (Homo sapiens, UniProt P49674). In words: Inhibition of wild-type human CK1epsilon using PLSRTLpSVASLPGL as substrate incubated for 70 mins in presence of ATP by Kinase-Glo luminescence assay.
A short description of assay [3]: Inhibition of porcine brain CK1delta using RRKHAAIGpSAYSITA as substrate incubated for 30 mins in presence of [gamma-33P]ATP by scintillation counting method. The format is tissue-based, Sus scrofa domesticus.

Sequence of Casein kinase I isoform epsilon (P49674 whole entry, canonical isoform): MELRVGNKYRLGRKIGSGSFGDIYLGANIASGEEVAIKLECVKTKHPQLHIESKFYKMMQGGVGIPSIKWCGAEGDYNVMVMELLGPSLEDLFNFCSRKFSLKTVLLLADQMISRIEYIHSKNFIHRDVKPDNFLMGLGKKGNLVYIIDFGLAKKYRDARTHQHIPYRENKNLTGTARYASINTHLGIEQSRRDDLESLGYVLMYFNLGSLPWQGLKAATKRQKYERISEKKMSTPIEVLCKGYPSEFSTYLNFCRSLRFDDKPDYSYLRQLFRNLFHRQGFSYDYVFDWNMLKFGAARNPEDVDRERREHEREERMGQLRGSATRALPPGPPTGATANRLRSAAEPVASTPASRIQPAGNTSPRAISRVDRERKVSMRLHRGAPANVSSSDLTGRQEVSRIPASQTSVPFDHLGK
Sequence of Casein kinase I isoform delta (P48730 whole entry, canonical isoform): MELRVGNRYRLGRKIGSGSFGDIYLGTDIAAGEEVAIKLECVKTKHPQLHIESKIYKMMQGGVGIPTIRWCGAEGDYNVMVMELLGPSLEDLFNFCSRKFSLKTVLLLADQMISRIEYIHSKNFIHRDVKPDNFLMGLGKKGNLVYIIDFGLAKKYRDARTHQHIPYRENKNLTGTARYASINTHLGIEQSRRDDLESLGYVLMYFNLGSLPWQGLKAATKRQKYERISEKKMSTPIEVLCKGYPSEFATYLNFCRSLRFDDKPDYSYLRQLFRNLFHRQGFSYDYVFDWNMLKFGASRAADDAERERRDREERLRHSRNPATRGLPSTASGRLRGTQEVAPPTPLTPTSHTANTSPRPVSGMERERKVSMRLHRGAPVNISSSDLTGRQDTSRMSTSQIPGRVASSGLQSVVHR

Turning to `Nc1nccc(-c2c(-c3ccc(F)cc3)ncn2C2CCN(Cc3ccon3)CC2)n1`, the IC50 (in general, the concentration that inhibits the measured activity by half) in assay [1] came to 3.9 nM; in assay [2], 17 nM.
For the compound `CCC(CO)Nc1nc(NCc2ccc(-c3ccccn3)cc2)c2ncn(C(C)C)c2n1` (stereo not drawn), the IC50 in assay [3] was 400 nM.
